IC50 data for 26 compounds are collected here from patent US11845751B2, “Triazolotriazine derivatives as A2A receptor antagonists” (ZHEJIANG VIMGREEN PHARMACEUTICALS, LTD., priority 2018, dated 2023).

The structures appear in SMILES notation.

T1 sequence (P29274 whole entry): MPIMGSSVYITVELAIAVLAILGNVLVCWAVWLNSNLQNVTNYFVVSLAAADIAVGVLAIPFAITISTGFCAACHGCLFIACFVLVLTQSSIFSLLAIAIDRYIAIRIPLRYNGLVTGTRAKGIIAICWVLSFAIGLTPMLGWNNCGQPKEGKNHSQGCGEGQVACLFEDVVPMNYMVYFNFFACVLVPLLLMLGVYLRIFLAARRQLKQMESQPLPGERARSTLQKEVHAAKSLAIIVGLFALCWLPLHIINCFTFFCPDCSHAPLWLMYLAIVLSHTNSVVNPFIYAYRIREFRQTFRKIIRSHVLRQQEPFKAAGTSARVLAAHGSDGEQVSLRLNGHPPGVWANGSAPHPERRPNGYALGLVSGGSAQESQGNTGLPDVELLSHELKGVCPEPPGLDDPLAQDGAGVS

The assay has as its target T1, A2AR (hADORA2A-HEK293 cells) (Homo sapiens, UniProt P29274).
T1 construct: expressed in transfected cells; host or cells: HEK293 (hADORA2A-HEK293)
Kind of assay: functional cAMP production assay: NECA stimulation of cAMP production and its inhibition by A2AR antagonists. Type of assay: cell-based. The note with it: A2AR-expressing HEK293 cells (hADORA2A-HEK293); NECA at EC80; TR-FRET cAMP readout; read-out: A2AR Potency (IC50, inhibition of NECA-stimulated cAMP production). The method, then: The antagonistic activities of the triazolotriazine derivatives of the present invention were measured in a functional cAMP production assay. The assay consists of NECA stimulation of cAMP production and its inhibition by A2AR antagonists in A2AR-expressing HEK293 cells (hADORA2A-HEK293). All cells were cultured in complete medium at 37° C. in 5% CO2. The cells were detached with pancreatin and collected at 200 g for 5 min. After resuspending the cells in fresh complete medium, the cell viability is counted using the trypan blue exclusion method. […] After the cells were diluted with Hank's buffered saline solution containing HEPES (5 mM), BSA stabilizer (0.1%) and […] Rolipram (10 μM), cells were loaded into white opaque 384-well plates (˜500 cells/well, 10 μl/well) and incubated with test compound at a suitable concentration range (11 concentrations) for 20 min at room temperature. Then the A2A receptor agonist NECA (final concentration=EC80, which was determined in the same experiment slightly earlier) was added to the sample and the mixture was incubated again for 30 min at 37° C. […] The inhibition rate (%) was calculated according to the following formula. The IC50 values were calculated from concentration-inhibition (%) curves after log transformation.
Consider `COCCOCCOCCOCCOCCOCCOCCOCCOc1ccc(CCNc2nc(N)n3nc(-c4ccco4)nc3n2)cc1` [Example 109, N5-(4-(2-(2-(2-(2-(2-(2-(2-(2-Methoxyethoxy)ethoxy)ethoxy)ethoxy)ethoxy)ethoxy)ethoxy)-ethoxy)phenethyl)-2-(furan-2-yl)-[1,2,4]triazolo[1,5-a][1,3,5]triazine-5,7-diamine], for which the IC50 was found to be 55 nM. For the compound `Nc1nc(NCCc2ccc(OCCOCCF)cc2)nc2nc(-c3ccco3)nn12` [Example 245, N5-(4-(2-(2-Fluoroethoxy)ethoxy)phenethyl)-2-(furan-2-yl)-[1,2,4]triazolo[1,5-a][1,3,5]triazine-5,7-diamine], the IC50 was 10.1 nM. Regarding `Nc1nc(NCCc2ccc(NC(=O)CCN3CCCC3)cc2)nc2nc(-c3ccco3)nn12` [Example 226, N-(4-(2-((7-Amino-2-(furan-2-yl)-[1,2,4]triazolo[1,5-a][1,3,5]triazin-5-yl)amino)ethyl)-phenyl)-3-(pyrrolidin-1-yl)propanamide], the 50% inhibitory concentration (IC50) was determined as 20 nM. As for `CN(C)CCCOc1ccc(CCNc2cc(N)n3nc(-c4ccco4)nc3c2)cc1` [Example 113, N^7-(4-(3-(Dimethylamino)propoxy)phenethyl)-2-(furan-2-yl)-[1,2,4]triazolo[1,5-a]pyridine-5,7-diamine], the half-maximal inhibitory concentration (IC50) was 15 nM. In the case of `Nc1nc(NCCc2c[nH]cn2)nc2nc(-c3ccco3)nn12` [Example 42, N5-(2-(1H-Imidazol-4-yl)ethyl)-2-(furan-2-yl)-[1,2,4]triazolo[1,5-α][1,3,5]triazine-5,7-diamine], the half-inhibitory concentration (IC50) came out at 129 nM. The value for `Nc1nc(NCCc2ccc(OCC(F)(F)F)cc2)nc2nc(-c3ccco3)nn12` [Example 207, N5-(4-(2,2,2-Trifluoroethoxy)phenethyl)-2-(furan-2-yl)-[1,2,4]triazolo[1,5-a][1,3,5]triazine-5,7-diamine] was 8.96 nM; that for `Nc1nc(NCCc2ccncn2)nc2nc(-c3ccco3)nn12` [Example 44, 2-(Furan-2-yl)-N5-(2-(pyrimidin-4-yl)ethyl)-[1,2,4]triazolo[1,5-α][1,3,5]triazine-5,7-diamine] was 63.8 nM.

Turning to `Nc1nc(NCCc2ccc(OCCCN3CCCC3)cc2)nc2nc(-c3ccco3)nn12` [Example 19, 2-(Furan-2-yl)-N5-(4-(3-(pyrrolidin-1-yl)propoxy)phenethyl)-[1,2,4]triazolo[1,5-α][1,3,5]-triazine-5,7-diamine], the IC50 came to 29 nM. As for `Nc1nc(NCCc2ccc(OCCF)cc2)nc2nc(-c3ccco3)nn12` [Example 142, N5-(4-(2-Fluoroethoxy)phenethyl)-2-(furan-2-yl)-[1,2,4]triazolo[1,5-a][1,3,5]triazine-5,7-diamine], the half-maximal inhibitory concentration (IC50) came out at 8.09 nM. For the compound `CN1CCC(C(=O)Nc2ccc(CCNc3nc(N)n4nc(-c5ccco5)nc4n3)cc2)CC1` [Example 241, N-(4-(2-((7-Amino-2-(furan-2-yl)-[1,2,4]triazolo[1,5-a][1,3,5]triazin-5-yl)amino)ethyl)-phenyl)-1-methylpiperidine-4-carboxamide], the 50% inhibitory concentration (IC50) turned out to be 11.2 nM. As for `Nc1nc(NCCc2ccc(OCc3ccncc3)cc2)nc2nc(-c3ccco3)nn12` [Example 29, 2-(Furan-2-yl)-N5-(4-(pyridin-4-ylmethoxy)phenethyl)-[1,2,4]triazolo[1,5-α][1,3,5]triazine-5,7-diamine], the IC50 was determined as 7 nM. `Nc1nc(NCCc2ccc(NC(=O)CCN3CCC3)cc2)nc2nc(-c3ccco3)nn12` [Example 313, N-(4-(2-((7-Amino-2-(furan-2-yl)-[1,2,4]triazolo[1,5-a][1,3,5]triazin-5-yl)amino)ethyl)-phenyl)-3-(azetidin-1-yl)propanamide]: the IC50 was 13.8 nM. Consider `Nc1nc(NCCc2ccccn2)nc2nc(-c3ccco3)nn12` [Example 302, 2-(Furan-2-yl)-N5-(2-(pyridin-2-yl)ethyl)-[1,2,4]triazolo[1,5-a][1,3,5]triazine-5,7-diamine], for which the IC50 stood at 12.7 nM.

`COCCOCCOCCOCCOCCOCCOCCOCCOCCOc1ccc(CCNc2nc(N)n3nc(-c4ccco4)nc3n2)cc1` [Example 117, N5-(4-(2-(2-(2-(2-(2-(2-(2-(2-(2-Methoxyethoxy)ethoxy)ethoxy)ethoxy)ethoxy)ethoxy)-ethoxy)ethoxy)ethoxy)phenethyl)-2-(furan-2-yl)-[1,2,4]triazolo[1,5-a][1,3,5]triazine-5,7-diamine]: the IC50 is 38 nM.

Consider `Nc1nc(NCCc2ccc(OCCN3CCOCC3)cc2)nc2nc(-c3ccco3)nn12` [Example 82, 2-(Furan-2-yl)-N5-(4-(2-morpholinoethoxy)phenethyl)-[1,2,4]triazolo[1,5-α][1,3,5]triazine-5,7-diamine], for which the half-maximal inhibitory concentration (IC50) came out at 9 nM.

In the case of `CN(CCOc1ccc(CCNc2nc(N)n3nc(-c4ccco4)nc3n2)cc1)Cc1cccnc1` [Example 284, 2-(Furan-2-yl)-N5-(4-(2-(methyl(pyridin-3-ylmethyl)amino)ethoxy)phenethyl)-[1,2,4]triazolo[1,5-a][1,3,5]triazine-5,7-diamine], the IC50 was found to be 32.3 nM.

Consider `Nc1nc(NCCc2ccc(OCCc3ccccn3)cc2)nc2nc(-c3ccco3)nn12` [Example 90, 2-(Furan-2-yl)-N5-(4-(2-(pyridin-2-yl)ethoxy)phenethyl)-[1,2,4]triazolo[1,5-α][1,3,5]triazine-5,7-diamine], for which the IC50 was determined as 10.9 nM. The result for `Nc1nc(NCCc2ccc(OCCN3CCCC3)cc2)nc2nc(-c3ccco3)nn12` [Example 16, 2-(Furan-2-yl)-N5-(4-(2-(pyrrolidin-1-yl)ethoxy)phenethyl)-[1,2,4]triazolo[1,5-α][1,3,5]-triazine-5,7-diamine] reads 24 nM. Consider `CN(C)[C@@H]1CCN(CCOc2ccc(CCNc3nc(N)n4nc(-c5ccco5)nc4n3)cc2)C1` [Example 214, N5-((R)-4-(2-(3-(Dimethylamino)pyrrolidin-1-yl)ethoxy)phenethyl)-2-(furan-2-yl)-[1,2,4]triazolo[1,5-a][1,3,5]triazine-5,7-diamine], for which the half-inhibitory concentration (IC50) stood at 35.2 nM. As to `Nc1nc(NCCc2ccc(OCCN3CCC3)cc2)nc2nc(-c3ccco3)nn12` [Example 98, N5-(4-(2-(Azetidin-1-yl)ethoxy)phenethyl)-2-(furan-2-yl)-[1,2,4]triazolo[1,5-α][1,3,5]triazine-5,7-diamine], the IC50 was 48.5 nM. Turning to `Nc1nc(NCCc2ccc(OCCN3CCCCCC3)cc2)nc2nc(-c3ccco3)nn12` [Example 51, N5-(4-(2-(Azepan-1-yl)ethoxy)phenethyl)-2-(furan-2-yl)-[1,2,4]triazolo[1,5-α][1,3,5]triazine-5,7-diamine], the half-maximal inhibitory concentration (IC50) was determined as 25.4 nM. For the compound `CN(C)CCOc1ccc(CCNc2nc(N)n3nc(-c4ccco4)nc3n2)cc1` [Example 13, N5-(4-(2-(Dimethylamino)ethoxy)phenethyl)-2-(furan-2-yl)-[1,2,4]triazolo[1,5-α][1,3,5]-triazine-5,7-diamine], the IC50 worked out at 18 nM. In the case of `Nc1nc(NCCc2ccc(NC(=O)Cc3ccncc3)cc2)nc2nc(-c3ccco3)nn12` [Example 276, N-(4-(2-((7-Amino-2-(furan-2-yl)-[1,2,4]triazolo[1,5-a][1,3,5]triazin-5-yl)amino)ethyl)-phenyl)-2-(pyridin-4-yl)acetamide], the IC50 was determined as 17.5 nM. For the compound `Nc1nc(NCCc2ccc(OCCCN3CCOCC3)cc2)nc2nc(-c3ccco3)nn12` [Example 86, 2-(Furan-2-yl)-N5-(4-(3-morpholinopropoxy)phenethyl)-[1,2,4]triazolo[1,5-α][1,3,5]triazine-5,7-diamine], the half-maximal inhibitory concentration (IC50) turned out to be 14.3 nM. Take `CN1CCCN(CCOc2ccc(CCNc3nc(N)n4nc(-c5ccco5)nc4n3)cc2)CC1` [Example 286, 2-(Furan-2-yl)-N5-(4-(2-(4-methyl-1,4-diazepan-1-yl)ethoxy)phenethyl)-[1,2,4]triazolo[1,5-a][1,3,5]triazine-5,7-diamine]: the IC50 was 33 nM. With `Nc1nc(NCCc2ccc(OCCCc3cccnc3)cc2)nc2nc(-c3ccco3)nn12` [Example 40, 2-(Furan-2-yl)-N5-(4-(3-(pyridin-3-yl)propoxy)phenethyl)-[1,2,4]triazolo[1,5-α][1,3,5]-triazine-5,7-diamine], the half-maximal inhibitory concentration (IC50) turned out to be 11 nM.

The IC50 is the concentration at which inhibition is half-maximal.
